Assay results reported in US8507463B2, “Nucleotide analogue prodrug and the preparation thereof” (Jiangsu Chia Tai Tianqing Pharmaceutical Co., Ltd., priority 2005, dated 2013).
Where a name gives a salt, the structure may show the parent alone.

Columns and labels:
[1] = type: physicochemical; details: for amount of solvent (ml), 0.1N HCl / amount of solvent (ml), 0.1N NaOH / amount of solvent (ml), anhydrous ethanol / amount of solvent (ml), methanol / amount of solvent (ml), water: to dissolve 1 g of sample
[2] = Light exposure test (4500±500 Lx); type: physicochemical; details: light 4500±500 Lx
From the text: Samples were evenly spread out and placed in open culture dishes and the thickness thereof was less than 5 mm, then distances were adjusted until the illumination intensity was 4500±500 Lx, samples were taken on the fifth and tenth day respectively for determination, compared with the result of day 0, results were listed in the table below: […]

[3] = High temperature test (60° C.); type: physicochemical; details: sealed ampoules
Procedure: Samples were sealed in clean glass ampoules and put in 60° C. thermostatic drying chamber, then they were taken on the fifth and tenth day respectively for determination, compared with the result of day 0, results were listed in the table below:
Samples were sealed in clean glass ampoules and put in 60° C. thermostatic drying chamber, then they were taken on the fifth and tenth day respectively for determination, compared with the result of day 0, results were listed in the table below

[4] = High humidity test (room temperature, relative humidity 75±5%); type: physicochemical; details: 25° C.
Procedure: Samples were evenly spread out and placed in open culture dishes, wherein the thickness thereof was less than 5 mm, put in a thermostatic drying chamber at room temperature (25° C.) with relative humidity of 75±5%. Then the samples were taken on the fifth and tenth day respectively for determination, compared with the result of day 0, results were listed in the table below

[5] = Acceleration test (40° C., relative humidity 75%); type: physicochemical
Procedure: Samples were sealed with polyethylene plastic bags, placed in the thermostatic drying chamber at 40±2° C. with relative humidity of 75±5% for 3 months. Then the samples were taken at the end of the first, second and third month respectively for determination, compared with the result of day 0, results were listed in the table below: […]

Duck Hepatitis B Virus = test: Anti-viral (anti-HBV) test in vivo, DHBV-DNA level by PCR; set-up: species or system GaoYou pockmark ducks; details: ducks, once a day, day 0 level as base line of 100
Procedure: Two-month old pockmark ducks vertically infected with Duck Hepatitis B Virus were selected as animal models to conduct anti-HBV test in vivo, the efficacy was investigated. 80 GaoYou pockmark ducks were divided randomly into. 8 groups, 10 ducks per groups, three groups were given TD fumarate at the dosage of 5, 15, 45 mg/kg once a day respectively, other three groups were given Tenofovir Disoproxil Fumarate at the dosage of 5, 15, 45 mg/kg once a day respectively, other one group was given Adefovir Dipivoxil at the dosage of 15 mg/kg once a day and the remaining group was blank control group. All the groups were administered for 28 days, and blood samples were taken every 7 days to determine the inhibitory effect to the DHBV-DNA level by PCR, inhibition rate was listed in the following table.

Compound | solubility conclusion, 0.1N HCl [1] | solubility conclusion, 0.1N NaOH [1] | solubility conclusion, anhydrous ethanol [1] | solubility conclusion, methanol [1] | amount of solvent (ml), 0.1N HCl [1] [mL] | amount of solvent (ml), 0.1N NaOH [1] [mL] | amount of solvent (ml), anhydrous ethanol [1] [mL] | amount of solvent (ml), methanol [1] [mL] | amount of solvent (ml), water ([1]; water) [mL] | solubility conclusion, water ([1]; water) | content (%) ([2]; day 0) | content (%) ([2]; day 5) | content (%) ([2]; day 10) | content (%) ([3]; day 0) | content (%) ([3]; day 5) | content (%) ([3]; day 10) | content (%) ([4]; day 0) | Weight gain after moisture absorption (%) ([4]; day 5) | content (%) ([4]; day 5) | Weight gain after moisture absorption (%) ([4]; day 10) | also measured
CC(Cn1cnc2c(N)ncnc21)OCP(=O)(OCOC(=O)C(C)(C)C)OCOC(=O)C(C)(C)C.CC1(C)CCC2(C(=O)O)CCC3(C)C(=CCC4C5(C)CCC(O)C(C)(C)C5CCC43C)C2C1 (stereo not drawn) [TD oleanolate] | not | not soluble | slightly | slightly | >1000 | >1000 | 650 | 760 | >1000 | not soluble | 99.2 | 99.0 | 99.3 | 99.0 | 98.9 | 98.6 | 99.2 | 0 | 99.1 | 0 | content (%) ([4]; day 10): 99.1%; content (%) ([5]; end of month 1): 98.7%; content (%) ([5]; end of month 2): 98.5%; content (%) ([5]; end of month 3): 98.4%; content (%) ([5]; month 0): 99.2%
CC(C)OC(=O)OCOP(=O)(CO[C@H](C)Cn1cnc2c(N)ncnc21)OCOC(=O)OC(C)C [Tenofovir Disoproxil Fumarate] |  |  |  |  |  |  |  |  |  |  |  |  |  |  |  |  |  |  |  |  | DHBV-DNA level, First week (Duck Hepatitis B Virus; 5 mg/ml group): 90 ± 9; DHBV-DNA level, Fourth week (Duck Hepatitis B Virus; 5 mg/ml group): 50 ± 7; DHBV-DNA level, Second week (Duck Hepatitis B Virus; 5 mg/ml group): 79 ± 5; DHBV-DNA level, Third week (Duck Hepatitis B Virus; 5 mg/ml group): 65 ± 6; DHBV-DNA level, First week (Duck Hepatitis B Virus; 15 mg/ml group): 83 ± 6; DHBV-DNA level, Fourth week (Duck Hepatitis B Virus; 15 mg/ml group): 37 ± 8; DHBV-DNA level, Second week (Duck Hepatitis B Virus; 15 mg/ml group): 66 ± 7; DHBV-DNA level, Third week (Duck Hepatitis B Virus; 15 mg/ml group): 53 ± 5; DHBV-DNA level, First week (Duck Hepatitis B Virus; 45 mg/ml group): 75 ± 9; DHBV-DNA level, Fourth week (Duck Hepatitis B Virus; 45 mg/ml group): 25 ± 7; DHBV-DNA level, Second week (Duck Hepatitis B Virus; 45 mg/ml group): 43 ± 8; DHBV-DNA level, Third week (Duck Hepatitis B Virus; 45 mg/ml group): 35 ± 6
C[C@H](Cn1cnc2c(N)ncnc21)OCP(=O)(OCOC(=O)C(C)(C)C)OCOC(=O)C(C)(C)C [amorphous TD, 9-[2-(R)-[bis[pivaloyloxymethoxy]-phosphinylmethoxy]propyl]adenine] | soluble | slightly | freely soluble | freely soluble | 25.2 | 613 | 5.6 | 2.0 | 380 | soluble | 98.5 | 98.3 | 98.1 | 98.5 | 97.5 | 97.1 | 99.0 | 1.0 | 97.9 | 2.3 | water solubility compared with other solid TD forms, in words ([1]; water): better solubility than crystalline TD in water; content (%) ([4]; day 10): 95.8%; content (%) ([5]; end of month 1): 92.3%; content (%) ([5]; end of month 2): 88.9%; content (%) ([5]; end of month 3): 82.8%; content (%) ([5]; month 0): 99.0%
